Laboratory results: paper PMC3816702, “The Three Catecholics Benserazide, Catechol and Pyrogallol are GPR35 Agonists” (Pharmaceuticals, 2013)

Legend:
GPR35 [1] = target: T1, GPR35 (Homo sapiens, UniProt Q9HC97); assay: Tango β-arrestin translocation gene reporter assay in U2OS-GPR35-bla cells; type: cell-based; parameters: host or cells: U2OS (Tango U2OS-GPR35-bla); conditions: for Potency EC50, Tango / EC50: β-arrestin translocation, tested up to 1mM, mean ± S.D.; for Potency EC50, Tango: n = 4; for Efficacy Tango (%zaprinast): normalized to maximal response of zaprinast (100%); for EC50: n = 4, read-out: Potency EC50, Tango
Experimental: (§1) Tango assays were performed in engineered U2OS-GPR35-bla cell line. This cell line permits an endpoint measurement of the activity of agonists specific to the GPR35 activation-induced β-arrestin translocation. Specifically, 10000 U2OS-GPR35-bla cells per well were seeded in 384-well, black-wall, clear bottom assay plates with low fluorescence background (Corning). After overnight culture, the cells were stimulated with ligands for 5 h at 37 °C under 5% CO2, and then loaded with the cell permeable LiveBLAzer™ fluorescence resonance energy transfer (FRET) B/G substrate. After 2 h incubation the coumarin to fluorescein ratio was measured using Victor 4 plate reader (PerkinElmer, Waltham, MA, USA).
Target sequence in this assay (Q9HC97 whole entry, species assumed): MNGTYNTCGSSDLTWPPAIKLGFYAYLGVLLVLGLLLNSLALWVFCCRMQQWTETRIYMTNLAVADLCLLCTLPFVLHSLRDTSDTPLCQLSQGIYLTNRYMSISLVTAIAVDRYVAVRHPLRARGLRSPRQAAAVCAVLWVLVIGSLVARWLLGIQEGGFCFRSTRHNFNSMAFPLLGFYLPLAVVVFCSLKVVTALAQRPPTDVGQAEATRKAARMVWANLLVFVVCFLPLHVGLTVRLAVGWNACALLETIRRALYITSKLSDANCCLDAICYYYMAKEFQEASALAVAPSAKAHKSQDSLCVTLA

GPR35 [2] = target: T1, GPR35; assay: DMR agonist assay in native HT-29 cells; type: cell-based; parameters: label-free DMR assays in both native HT-29 and engineered U2OS-GPR35-bla cells; host or cells: HT-29; conditions: for Potency EC50, DMR / EC50: mean ± S.D.; for Potency EC50, DMR: n = 4; for Efficacy DMR: maximal DMR amplitude; for EC50: n = 4, read-out: Potency EC50, DMR
Experimental: (§2) DMR assays were performed using an Epic® system (Corning Inc., Corning, NY, USA). This system records a ligand-induced dynamic mass redistribution (DMR) signal of live cells as a shift in resonant wavelength (in picometer, pm) of a resonant waveguide grating biosensor. The DMR signal obtained is a real-time kinetic response that provides a holistic view of ligand-receptor interaction(s) and its functional consequence in the cells. For HT-29 cells 30,000 cells per well were seeded into 384well Epic® biosensor plates (Corning) and cultured overnight. For U2OS and U2OS-GPR35-bla cells 18,000 cells per well were seeded and cultured overnight. These cells were then washed twice using a plate washer, maintained with Hank’s balanced salt solution (1 × HBSS) and further incubated inside the Epic® system for 1 h. DMR agonist profiling proceeds with a 2-min baseline, followed by compound addition and monitoring the compound-induced responses for about 1 h. […] All DMR signals were background corrected.
Target sequence in this assay (Q9HC97 whole entry): as the sequence (Q9HC97 whole entry, species assumed) above

GPR35 [3] = target: T1, GPR35; assay: ML-145 inhibition of Tango signals of agonists at a fixed dose in U2OS-GPR35-bla cells; type: cell-based; parameters: host or cells: U2OS (Tango U2OS-GPR35-bla); conditions: label = agonist at fixed dose: 10 μM zaprinast, 10 μM YE210, 50 μM gallic acid, 10 μM pyrogallol, 32 μM benserazide, 250 μM 3-methoxycatechol
Experimental: as §1
Target sequence in this assay (Q9HC97 whole entry, species assumed): as above

GPR35 [4] = target: T1, GPR35; assay: DMR antagonist assay in HT-29 cells (preincubation with antagonist, then agonist at fixed dose); type: cell-based; parameters: label-free DMR assays in both native HT-29 and engineered U2OS-GPR35-bla cells; host or cells: HT-29; conditions: 500 μM catechol; for Blockage of the agonist-induced DMR by ML-145: label = agonist at fixed dose: 64 μM propyl gallate, 200 or 100 μM syringic acid, 16 μM benserazide, 20 μM (+)-taxifolin, 100 μM fenoldopam; for Effect of antagonist on the catechol DMR: label = antagonist
Experimental: as §2
Target sequence in this assay (Q9HC97 whole entry): as the sequence (Q9HC97 whole entry, species assumed) above

GPR35 [5] = target: T1, GPR35; assay: DMR agonist assay in engineered U2OS-GPR35-bla cells; type: cell-based; parameters: host or cells: U2OS (Tango U2OS-GPR35-bla); conditions: DMR amplitude at 8min poststimulation; n = 4
Experimental: as §2
Target sequence in this assay (Q9HC97 whole entry, species assumed): as above

parental U2OS cells = assay: DMR agonist assay in parental U2OS cells; type: cell-based; conditions: parental U2OS cells without GPR35
Experimental: as §2

GPR35 [6] = target: T1, GPR35; conditions: previously found; cited from earlier work
Target sequence in this assay (Q9HC97 whole entry): as the sequence (Q9HC97 whole entry, species assumed) above

Row | Potency EC50, Tango (GPR35 [1]) | Efficacy Tango (%zaprinast) (GPR35 [1]) | Efficacy DMR (GPR35 [2]) [pm] | EC50 (GPR35 [2]) [µM] | Blockage of the agonist Tango signal by ML-145 (GPR35 [3]) | Blockage of the agonist-induced DMR by ML-145 (GPR35 [4]) | Compound | other results
1 | inactive |  |  |  |  |  | COc1ccc(C=CC(=O)O)cc1OC [3,4-Dimethoxycinnamic acid, 3,4-dimethoxycinnamic acid] | Potency EC50, DMR (GPR35 [2]): inactive
2 |  | 41 ± 3 | 219 | 147 ± 15 | dose-dependently blocked |  | COc1cccc(O)c1O [3-Methoxycatechol, 3-methoxycatechol] | EC50 (GPR35 [1]): 80.7 ± 6.3 µM
3 | weak | >8 | 170 | 6.6 ± 0.5 |  | completely blocked | O=C1c2c(O)cc(O)cc2O[C@H](c2ccc(O)c(O)c2)[C@H]1O [(+)-Taxifolin, (+)-taxifolin] | 
4 | inactive |  |  |  |  |  | Oc1cc(O)c2c(c1)O[C@@H](c1ccc(O)c(O)c1)[C@H](O)C2 [(−)-Catechin, (−)-catechin] | Potency EC50, DMR (GPR35 [2]): inactive
5 |  | 48 ± 4 | 296 | 11 ± 0.9 | dose-dependently blocked | partially blocked | NC(CO)C(=O)NNCc1ccc(O)c(O)c1O (stereo not drawn) [Benserazide] | EC50 (GPR35 [1]): 7.5 ± 0.6 µM; EC50 (GPR35 [5]): 1 ± 0.13 µM; DMR activity in the parental U2OS cells (parental U2OS cells): inactive
6 | inactive | 0 | 207 | 319 ± 27 |  | completely blocked | Oc1ccccc1O [Catechol, catechol] | 
7 | inactive | 0 | 268 | 206 ± 19 |  | completely blocked | Oc1ccc(C2CNCCc3c2cc(O)c(O)c3Cl)cc1 (stereo not drawn) [Fenoldopam, fenoldopam, reference compound] | 
8 | weak | >8 | 210 | 20.2 ± 1.9 |  | completely blocked | CCCOC(=O)c1cc(O)c(O)c(O)c1 [Propyl gallate, propyl gallate] | 
9 |  | 113 ± 5 | 210 | 1.3 ± 0.1 | dose-dependently blocked |  | Oc1cccc(O)c1O [Pyrogallol, pyrogallol] | EC50 (GPR35 [1]): 4.5 ± 0.4 µM
10 | weak | >10 | 151 | 147 ± 23 |  | completely blocked | COc1cc(C(=O)O)cc(OC)c1O [Syringic acid, syringic acid] | 
11 |  |  |  |  | dose-dependently blocked |  | Cc1c(C(=O)O)sc2c(Br)csc12 [YE210] | 
12 |  |  |  |  |  |  | CC(C)NCC(O)COc1ccc(CCOCC2CC2)cc1 (stereo not drawn) [betaxolol, reference compound] | Effect of antagonist on the catechol DMR (GPR35 [4]): neither the β-adrenergic receptor antagonist betaxolol nor α2-adrenergic receptor antagonist yohimbine had any obvious effects
13 |  |  |  |  |  |  | O=C(O)/C=C/c1ccc(O)c(O)c1 [caffeic acid] | GPR35 agonist activity (DMR in HT-29), in words (GPR35 [6]): weak partial agonist
14 |  |  |  |  |  |  | COC(=O)[C@@H]1[C@H]2C[C@H]3c4[nH]c5ccccc5c4CCN3C[C@@H]2CC[C@@H]1O [yohimbine, reference compound] | Effect of antagonist on the catechol DMR (GPR35 [4]): neither the β-adrenergic receptor antagonist betaxolol nor α2-adrenergic receptor antagonist yohimbine had any obvious effects
15 |  |  |  |  | dose-dependently blocked |  | CCCOc1ccccc1-c1nc2nn[nH]c2c(=O)[nH]1 [zaprinast, Zaprinast] | DMR activity in the parental U2OS cells (parental U2OS cells): inactive

Row | Compound | Potency EC50, Tango (GPR35 [1]) | Efficacy Tango (%zaprinast) (GPR35 [1]) | Efficacy DMR (GPR35 [2]) [pm] | EC50 (GPR35 [2]) [µM] | Blockage of the agonist Tango signal by ML-145 (GPR35 [3]) | Blockage of the agonist-induced DMR by ML-145 (GPR35 [4]) | other results
16 | O=C(O)c1cc(O)c(O)c(O)c1 [Gallic acid, gallic acid, reference compound] |  | 77 ± 5 |  | 1.16 ± 0.09 | dose-dependently blocked |  | EC50 (GPR35 [1]): 12.6 ± 1 µM
